From paper PMC3161154 (Journal of the American Chemical Society, 2011)

Columns and labels:
MDA-468 = test: cytotoxicity, MDA-468; format: cell-based; conditions: read-out: MDA-468 (nM), cytotoxicity
mTOR = mTOR (Homo sapiens, UniProt P42345); test: mTor kinase inhibition; format: biochemical; conditions: read-out: mTOR (nM), mTor kinase inhibition
LNCap = test: cytotoxicity, LNCap; format: cell-based; conditions: read-out: LNCap (nM), cytotoxicity
[1] = biological target: phosphatidylinositol 3-kinase; conditions: read-out: IC50 phosphatidylinositol 3-kinase; cited from earlier work
lymphocyte kinase = conditions: read-out: IC50 lymphocyte kinase; cited from earlier work

Compound	IC50 (MDA-468) [nM]	IC50 (mTOR) [nM]	IC50 (LNCap) [nM]	IC50 [1] [nM]	IC50 (lymphocyte kinase) [nM]
neolymphostin A [Compound 3]	58	0.8	22		
COC=CC(=O)c1cc2cnc3c(=N)cc(NC(=O)CC(C)C)c([nH]1)c23 [Compound 6, neolymphostin D]	700	1.8	230		
CO/C=C/C(=O)c1cc2cnc3c(=N)cc(NC(C)=O)c([nH]1)c23 [Compound 1, lymphostin]	14	1.7	38	1	50
CCC(=O)Nc1cc(=N)c2ncc3cc(C(=O)C=COC)[nH]c1c32 [Compound 4, neolymphostin B]	85	1.5	48		
CC[C@H](C)C(=O)Nc1cc(=N)c2ncc3cc(C(=O)C=COC)[nH]c1c32 [Compound 5, neolymphostin C]	700	1.8	230		
